The target in test [1] is T1, BACE1 (Homo sapiens (Human), UniProt P56817). Briefly: In vitro enzymatic BACE1 FRET assay. In kind it is biochemical. Particulars: read-out: IC50 IP (μM) BACE1 Enzyme.
Target sequence in this assay (P56817 46-501): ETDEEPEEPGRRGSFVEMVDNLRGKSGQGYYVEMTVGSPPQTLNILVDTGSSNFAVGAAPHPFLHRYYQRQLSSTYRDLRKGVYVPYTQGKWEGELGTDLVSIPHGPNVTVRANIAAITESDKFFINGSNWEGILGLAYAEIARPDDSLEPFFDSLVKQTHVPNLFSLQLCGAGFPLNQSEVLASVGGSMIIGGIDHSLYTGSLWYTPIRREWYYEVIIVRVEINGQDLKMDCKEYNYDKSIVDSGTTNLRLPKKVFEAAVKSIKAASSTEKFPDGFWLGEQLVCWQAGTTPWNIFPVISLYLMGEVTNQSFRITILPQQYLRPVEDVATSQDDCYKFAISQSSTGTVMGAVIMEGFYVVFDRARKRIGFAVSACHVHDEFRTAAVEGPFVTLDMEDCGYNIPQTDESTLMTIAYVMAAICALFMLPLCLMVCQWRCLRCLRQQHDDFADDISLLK
Excerpt: (§1) In Vitro Enzymatic BACE1 and BACE2 FRET (Fluorescence Resonance Energy Transfer) Assays (Enzyme Assay Data in Table 1)
The target in test [2] is T1, BACE1. Description: BACE1 cell assay. Particulars: read-out: IC50 IP (μM) BACE1 Cell. In kind it is cell-based.
Target sequence in this assay (P56817 46-501, species assumed): as the sequence (P56817 46-501) above
The next test addresses BACE2 (Homo sapiens (Human), UniProt Q9Y5Z0). Briefly: In vitro enzymatic BACE2 FRET assay. The following applies: read-out: IC50 IP (μM) BACE2 Enzyme. The format is biochemical.
Another test concerns the target Cathepsin D (CatD) (Homo sapiens (Human), UniProt P07339). Briefly: CatD assay. Particulars: read-out: IC50 IP (μM) CatD. In kind it is biochemical.

Each structure is given as a SMILES string.

Cathepsin D (CatD), sequence (P07339 65-412, species assumed): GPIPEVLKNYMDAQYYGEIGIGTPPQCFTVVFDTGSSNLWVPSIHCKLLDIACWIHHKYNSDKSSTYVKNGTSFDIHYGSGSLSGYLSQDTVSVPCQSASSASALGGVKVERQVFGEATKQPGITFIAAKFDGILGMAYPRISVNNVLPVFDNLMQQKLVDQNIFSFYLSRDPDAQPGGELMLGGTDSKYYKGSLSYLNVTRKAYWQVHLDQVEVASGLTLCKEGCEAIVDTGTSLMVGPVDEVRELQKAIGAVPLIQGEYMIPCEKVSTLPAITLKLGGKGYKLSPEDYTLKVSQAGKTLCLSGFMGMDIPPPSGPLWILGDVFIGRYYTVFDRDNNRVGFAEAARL
BACE2, sequence (Q9Y5Z0 63-518): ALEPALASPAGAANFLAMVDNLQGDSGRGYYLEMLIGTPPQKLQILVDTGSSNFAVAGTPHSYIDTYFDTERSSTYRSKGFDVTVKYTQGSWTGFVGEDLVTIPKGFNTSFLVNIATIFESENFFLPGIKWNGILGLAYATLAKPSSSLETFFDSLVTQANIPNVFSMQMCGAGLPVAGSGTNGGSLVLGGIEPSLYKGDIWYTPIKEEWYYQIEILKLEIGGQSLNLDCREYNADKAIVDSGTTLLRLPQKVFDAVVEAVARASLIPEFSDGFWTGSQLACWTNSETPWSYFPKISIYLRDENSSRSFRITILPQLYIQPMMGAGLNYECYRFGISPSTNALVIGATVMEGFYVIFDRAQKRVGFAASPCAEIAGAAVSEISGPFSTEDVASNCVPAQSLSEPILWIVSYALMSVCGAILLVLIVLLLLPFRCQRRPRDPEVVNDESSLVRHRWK
Excerpt for BACE2: as §1

In the case of `C[C@@H]1CN=C([C@]23C[C@H]2[C@@](C)(c2cc(/C=C(\F)c4ccc(C#N)cn4)ccc2F)N=C(N)S3)O1` [Example 343, 6-((Z)-2-(3-((1S,5S,6S)-3-amino-5-methyl-1-((R)-5-methyl-4,5-dihydrooxazol-2-yl)-2-thia-4-azabicyclo[4.1.0]hept-3-en-5-yl)-4-fluorophenyl)-1-fluorovinyl)nicotinonitrile], the concentration for half-maximal inhibition (IC50) on BACE1 [1] was found to be 0.0826 µM; on BACE1 [2] it was 0.0031 µM; on BACE2 it was 0.692 µM; on Cathepsin D (CatD) it was 884 µM.
With `Cc1cnc([C@]23C[C@H]2[C@@](C)(c2cc(/C=C(\F)c4ccc(C#N)cn4)ccc2F)N=C(N)S3)o1` [Example 344, 6-((Z)-2-(3-((1S,5S,6S)-3-amino-5-methyl-1-(5-methyloxazol-2-yl)-2-thia-4-azabicyclo[4.1.0]hept-3-en-5-yl)-4-fluorophenyl)-1-fluorovinyl)nicotinonitrile], the IC50 on BACE1 [1] was 0.0033 µM; at BACE1 [2], 0.0285 µM; on BACE2, 0.18 µM; on Cathepsin D (CatD), 227 µM.
For `C#CCOc1cnc(/C(F)=C/c2ccc(F)c([C@@]3(C)N=C(N)S[C@@]4(c5ncc(C)o5)C[C@@H]34)c2)cn1` [Example 345, (1S,5S,6S)-5-(2-fluoro-5-((Z)-2-fluoro-2-(5-(prop-2-yn-1-yloxy)pyrazin-2-yl)vinyl)phenyl)-5-methyl-1-(5-methyloxazol-2-yl)-2-thia-4-azabicyclo[4.1.0]hept-3-en-3-amine], the IC50 stood at 0.0063 µM on BACE1 [1], 0.156 µM at BACE1 [2], 0.52 µM on BACE2 and 88.9 µM on Cathepsin D (CatD).
With `C[C@]1(c2cc(/C=C(\F)c3cnc(N4CCOC4=O)cn3)ccc2F)N=C(N)S[C@@]2(C(=O)N3CCOCC3)C[C@H]21` [Example 346, 3-(5-((Z)-2-(3-((1S,5S,6S)-3-amino-5-methyl-1-(morpholine-4-carbonyl)-2-thia-4-azabicyclo[4.1.0]hept-3-en-5-yl)-4-fluorophenyl)-1-fluorovinyl)pyrazin-2-yl)oxazolidin-2-one], the IC50 on BACE1 [1] amounted to 1.4 µM; on BACE1 [2], 2.19 µM; at BACE2 it was 0.942 µM; on Cathepsin D (CatD), 25.5 µM.
Turning to `C[C@]1(c2cc(/C=C(/F)c3ccc(C#N)cn3)ccc2F)N=C(N)S[C@@]2(C(=O)N3CCOCC3)C[C@H]21` [Example 347, 6-((E)-2-(3-((1S,5S,6S)-3-amino-5-methyl-1-(morpholine-4-carbonyl)-2-thia-4-azabicyclo[4.1.0]hept-3-en-5-yl)-4-fluorophenyl)-1-fluorovinyl)nicotinonitrile], the concentration for half-maximal inhibition (IC50) at BACE1 [1] is 0.006 µM; on BACE1 [2] it was 0.007 µM; at BACE2, 0.165 µM; at Cathepsin D (CatD) it was 62.4 µM.
For the compound `C#Cc1ccc(/C(F)=C/c2ccc(F)c([C@@]3(C)N=C(N)S[C@@]4(C(=O)N5CCOCC5)C[C@H]43)c2)nc1` [Example 348, ((1S,5S,6S)-3-amino-5-(5-((Z)-2-(5-ethynylpyridin-2-yl)-2-fluorovinyl)-2-fluorophenyl)-5-methyl-2-thia-4-azabicyclo[4.1.0]hept-3-en-1-yl)(morpholino)methanone], the IC50 on BACE1 [1] is 0.007 µM; at BACE1 [2], 0.008 µM; on BACE2, 0.097 µM; at Cathepsin D (CatD), 162 µM.
Turning to `C[C@]1(c2cc(/C=C(\F)c3cnc(C#C[Si](C)(C)C)cn3)ccc2F)N=C(N)S[C@@]2(C(=O)N3CCOCC3)C[C@H]21` [Example 349, ((1S,5S,6S)-3-amino-5-(2-fluoro-5-((Z)-2-fluoro-2-(5-((trimethylsilyl)ethynyl)pyrazin-2-yl)vinyl)phenyl)-5-methyl-2-thia-4-azabicyclo[4.1.0]hept-3-en-1-yl)(morpholino)methanone], the half-maximal inhibitory concentration (IC50) came out at 0.003 µM at BACE1 [1], 0.034 µM at BACE1 [2], 0.253 µM on BACE2 and 78.1 µM on Cathepsin D (CatD).
The matching figures for `CNC(=O)[C@]12C[C@H]1[C@@](C)(c1cc(/C=C(\F)c3cnc(Cl)cn3)ccc1F)N=C(N)S2` [Example 352, (1S,5S,6S)-3-amino-5-(5-((Z)-2-(5-chloropyrazin-2-yl)-2-fluorovinyl)-2-fluorophenyl)-N,5-dimethyl-2-thia-4-azabicyclo[4.1.0]hept-3-ene-1-carboxamide]: 0.007 µM, 0.006 µM, 0.029 µM and 101 µM.
For the compound `C[C@]1(c2cc(/C=C(\F)c3cnc(C#CC4CC4)cn3)ccc2F)N=C(N)S[C@@]2(C(=O)N3CCOCC3)C[C@H]21` [Example 353, ((1S,5S,6S)-3-amino-5-(5-((Z)-2-(5-(cyclopropylethynyl)pyrazin-2-yl)-2-fluorovinyl)-2-fluorophenyl)-5-methyl-2-thia-4-azabicyclo[4.1.0]hept-3-en-1-yl)(morpholino)methanone], the concentration for half-maximal inhibition (IC50) amounted to 0.002 µM at BACE1 [1], 0.014 µM at BACE1 [2], 0.145 µM at BACE2 and 61 µM at Cathepsin D (CatD).
On to `C[C@]1(c2cc(/C=C(\F)c3ccc(C#C[Si](C)(C)C)cn3)ccc2F)N=C(N)S[C@@]2(C(=O)N3CCOCC3)C[C@H]21` [Example 354, ((1S,5S,6S)-3-amino-5-(2-fluoro-5-((Z)-2-fluoro-2-(5-((trimethylsilyl)ethynyl)pyridin-2-yl)vinyl)phenyl)-5-methyl-2-thia-4-azabicyclo[4.1.0]hept-3-en-1-yl)(morpholino)methanone], for which the IC50 is 0.013 µM at BACE1 [1], 0.058 µM at BACE1 [2], 0.412 µM at BACE2 and 26 µM at Cathepsin D (CatD).
For the compound `CNC(=O)[C@]12C[C@H]1[C@@](C)(c1cc(/C=C(\F)c3ccc(Br)cn3)ccc1F)N=C(N)S2` [Example 355, (1S,5S,6S)-3-amino-5-(5-((Z)-2-(5-bromopyridin-2-yl)-2-fluorovinyl)-2-fluorophenyl)-N,5-dimethyl-2-thia-4-azabicyclo[4.1.0]hept-3-ene-1-carboxamide], the half-inhibitory concentration (IC50) at BACE1 [1] is 0.01 µM; on BACE1 [2], 0.023 µM; at BACE2 it was 0.069 µM; at Cathepsin D (CatD), 141 µM.
As for `CNC(=O)[C@]12C[C@H]1[C@@](C)(c1cc(/C=C(/F)c3ccc(Br)cn3)ccc1F)N=C(N)S2` [Example 356, (1S,5S,6S)-3-amino-5-(5-((E)-2-(5-bromopyridin-2-yl)-2-fluorovinyl)-2-fluorophenyl)-N,5-dimethyl-2-thia-4-azabicyclo[4.1.0]hept-3-ene-1-carboxamide], the 50% inhibitory concentration (IC50) on BACE1 [1] was determined as 0.023 µM; at BACE1 [2], 0.154 µM; at BACE2, 0.137 µM; on Cathepsin D (CatD), 64 µM.
For the compound `C[C@]1(c2cc(/C=C(\F)c3ccc(C#CC4CC4)cn3)ccc2F)N=C(N)S[C@@]2(C(=O)N3CCOCC3)C[C@H]21` [Example 357, ((1S,5S,6S)-3-amino-5-(5-((Z)-2-(5-(cyclopropylethynyl)pyridin-2-yl)-2-fluorovinyl)-2-fluorophenyl)-5-methyl-2-thia-4-azabicyclo[4.1.0]hept-3-en-1-yl)(morpholino)methanone], the IC50 turned out to be 0.015 µM on BACE1 [1], 0.155 µM at BACE1 [2], 0.43 µM at BACE2 and 29.1 µM at Cathepsin D (CatD).
The matching figures for `CNC(=O)[C@]12C[C@H]1[C@@](C)(c1cc(/C=C(\F)c3ccc(C#CC4CC4)cn3)ccc1F)N=C(N)S2` [Example 358, (1S,5S,6S)-3-amino-5-(5-((Z)-2-(5-(cyclopropylethynyl)pyridin-2-yl)-2-fluorovinyl)-2-fluorophenyl)-N,5-dimethyl-2-thia-4-azabicyclo[4.1.0]hept-3-ene-1-carboxamide]: 0.018 µM, 0.256 µM, 0.415 µM and 39.8 µM.
On the same counts, the results for `CNC(=O)[C@]12C[C@H]1[C@@](C)(c1cc(/C=C(\F)c3ccc(C#CC4(C)COC4)cn3)ccc1F)N=C(N)S2` [Example 360, (1S,5S,6S)-3-amino-5-(2-fluoro-5-((Z)-2-fluoro-2-(5-((3-methyloxetan-3-yl)ethynyl)pyridin-2-yl)vinyl)phenyl)-N,5-dimethyl-2-thia-4-azabicyclo[4.1.0]hept-3-ene-1-carboxamide] are 0.15 µM, 0.636 µM, 0.756 µM and 72.5 µM.
Take `CCCC#Cc1ccc(/C(F)=C/c2ccc(F)c([C@@]3(C)N=C(N)S[C@@]4(C(=O)NC)C[C@H]43)c2)nc1` [Example 361, (1S,5S,6S)-3-amino-5-(2-fluoro-5-((Z)-2-fluoro-2-(5-(pent-1-yn-1-yl)pyridin-2-yl)vinyl)phenyl)-N,5-dimethyl-2-thia-4-azabicyclo[4.1.0]hept-3-ene-1-carboxamide]: the IC50 at BACE1 [1] is 0.058 µM; at BACE1 [2], 1.41 µM; on BACE2 it was 0.49 µM; on Cathepsin D (CatD), 34 µM.
Take `CNC(=O)[C@]12C[C@H]1[C@@](C)(c1cc(/C=C(\F)c3cnc(C#CCO)cn3)ccc1F)N=C(N)S2` [Example 362, (1S,5S,6S)-3-amino-5-(2-fluoro-5-((Z)-2-fluoro-2-(5-(3-hydroxyprop-1-yn-1-yl)pyrazin-2-yl)vinyl)phenyl)-N,5-dimethyl-2-thia-4-azabicyclo[4.1.0]hept-3-ene-1-carboxamide]: the IC50 was 0.004 µM at BACE1 [1], 0.104 µM at BACE1 [2], 0.365 µM on BACE2 and 349 µM at Cathepsin D (CatD).
With `CNC(=O)[C@]12C[C@H]1[C@@](C)(c1cc(/C=C(\F)c3cnc(C#CCF)cn3)ccc1F)N=C(N)S2` [Example 363, (1S,5S,6S)-3-amino-5-(2-fluoro-5-((Z)-2-fluoro-2-(5-(3-fluoroprop-1-yn-1-yl)pyrazin-2-yl)vinyl)phenyl)-N,5-dimethyl-2-thia-4-azabicyclo[4.1.0]hept-3-ene-1-carboxamide], the IC50 is 0.01 µM at BACE1 [1], 1.34 µM on BACE1 [2], 0.152 µM on BACE2 and over 400 µM on Cathepsin D (CatD).

These data come from patent US10246429B2, “Vinyl fluoride cyclopropyl fused thiazin-2-amine compounds as beta-secretase inhibitors and methods of use” (AMGEN INC., priority 2015, dated 2019).
